# Source: ChEMBL document CHEMBL1201862, “PubChem BioAssay data set” (2004)
# Calls of active or inactive are those of the source. Rule as the data show it: actives have a measured IC50 and inactives only a lower limit.
# Target: Envelope glycoprotein gp160 (Human immunodeficiency virus 1, UniProt Q6QLK5)
# Assay: cell-free HIV fusion peptide-binding blockers – biochemical, uHTS, fluorescence dequenching, […] (AID 1986)
# Chain of Envelope glycoprotein gp160 (Q6QLK5 whole entry, the tested form may be a part): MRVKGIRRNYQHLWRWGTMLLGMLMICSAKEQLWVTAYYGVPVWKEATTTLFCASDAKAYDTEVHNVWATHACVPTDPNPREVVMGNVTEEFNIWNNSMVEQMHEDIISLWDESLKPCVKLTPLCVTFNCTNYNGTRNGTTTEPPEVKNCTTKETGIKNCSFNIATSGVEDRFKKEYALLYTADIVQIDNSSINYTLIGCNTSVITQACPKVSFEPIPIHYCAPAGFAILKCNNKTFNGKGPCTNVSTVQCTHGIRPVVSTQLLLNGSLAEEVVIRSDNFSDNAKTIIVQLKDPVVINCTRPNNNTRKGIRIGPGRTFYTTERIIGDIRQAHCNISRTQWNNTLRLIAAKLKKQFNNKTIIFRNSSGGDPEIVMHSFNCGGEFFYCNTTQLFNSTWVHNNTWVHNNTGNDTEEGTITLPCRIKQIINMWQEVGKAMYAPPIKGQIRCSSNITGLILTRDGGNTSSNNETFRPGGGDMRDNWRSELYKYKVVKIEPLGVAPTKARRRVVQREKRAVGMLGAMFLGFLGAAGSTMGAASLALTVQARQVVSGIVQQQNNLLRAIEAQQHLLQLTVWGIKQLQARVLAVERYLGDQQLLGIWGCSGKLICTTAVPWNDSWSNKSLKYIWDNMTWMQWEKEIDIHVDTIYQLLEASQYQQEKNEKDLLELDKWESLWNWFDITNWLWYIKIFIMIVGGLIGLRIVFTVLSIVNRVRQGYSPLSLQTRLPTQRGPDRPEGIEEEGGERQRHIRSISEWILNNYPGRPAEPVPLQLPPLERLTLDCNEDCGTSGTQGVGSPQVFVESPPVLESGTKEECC
row,Compound,IC50
1,CCOc1cc(/C=C2/C(=N)N3C(=NC2=O)SN=C3S(=O)(=O)C(C)C)ccc1OC(=O)c1ccco1,14.8 µM (active)
2,CCc1nnc(NS(=O)(=O)c2ccc(NC(=O)/C=C/c3ccccc3Cl)cc2)s1,23.7 µM (active)
3,COc1ccc(C(=O)COC(=O)c2ccccc2NS(=O)(=O)c2ccc(O)c([N+](=O)[O-])c2)cc1,16.4 µM (active)
4,N=C1/C(=C\c2ccc(-c3cccc(C(=O)O)c3)o2)C(=O)N=C2SC=C(c3ccccc3)N12,6.64 µM (active)
5,Cc1noc(NS(=O)(=O)c2ccc(NC(=O)Nc3ccc(Cl)c(Cl)c3)cc2)c1C,19.8 µM (active)
6,CC(C)S(=O)(=O)C1=NSC2=NC(=O)/C(=C\c3ccc(OC(=O)c4ccco4)cc3)C(=N)N21,26.7 µM (active)
7,O=C(O)c1cc(NC(=O)c2ccc(Br)cc2)cc(NC(=O)c2ccc(Br)cc2)c1,29.4 µM (active)
8,Brc1ccc(N/N=C(/N=Nc2nn[nH]n2)c2ccccc2)cc1,29.5 µM (active)
